According to US9610365B2, “Anthracenyl-tetralactam macrocycles and their use in detecting a target saccharide” (UNIVERSITY OF BRISTOL, priority 2012, dated 2017):
One block for each compound: values may come before it.

Assays:
[1] = 1H NMR titration, binding to carbohydrate substrate; details: for Ka: 1H NMR titration in D2O at 298 K
Procedure: (§1) The binding of receptor compound 3 to carbohydrate substrates, in aqueous solution, was studied initially by ^1H NMR titrations at 298 K. The saccharides used as test substrates are shown in FIG. 7.
(§2) Titrations were performed on a Varian™ 500 MHz spectrometer. Solutions of reducing carbohydrates were prepared in D2O and kept overnight at room temperature before the titration experiments, in order to ensure equilibration of anomers. In a typical titration, aliquots of carbohydrate solution were added to receptor solution (DSS as internal standard) and the ^1H NMR spectra were recorded. Variations in chemical shifts were entered into a specifically written non-linear least squares curve-fitting program implemented within Excel™. Assuming 1:1 stoichiometry, the program calculates Ka and the limiting change in chemical shift Δδ. The assumption is supported by the generally good fits between observed and calculated data.

[2] = as above; details: 1H NMR titration in D2O at 298 K
Procedure: as §1, §2

[3] = as above; details: 1H NMR titration in D2O at 298 K; remark: listed apart in the source
Procedure: as §1, §2

[4] = as above; details: 1H NMR titration in D2O at 298 K; remark: listed apart in the source
Procedure: as §1, §2

[5] = as above; details: 1H NMR titration in D2O at 298 K; remark: listed apart in the source
Procedure: as §1, §2

[6] = as above; details: 1H NMR titration in D2O at 298 K; remark: listed apart in the source
Procedure: as §1, §2

[7] = as above; details: 1H NMR titration in D2O at 298 K; remark: listed apart in the source
Procedure: as §1, §2

[8] = as above; details: 1H NMR titration in D2O at 298 K; remark: listed apart in the source
Procedure: as §1, §2

[9] = as above; details: 1H NMR titration in D2O at 298 K; remark: listed apart in the source
Procedure: as §1, §2

[10] = as above; details: 1H NMR titration in D2O at 298 K; remark: listed apart in the source
Procedure: as §1, §2

[11] = as above; details: 1H NMR titration in D2O at 298 K; ~0 = too small for analysis
Procedure: as §1, §2

[12] = as above; details: 1H NMR titration in D2O at 298 K; ~0 = too small for analysis; remark: listed apart in the source
Procedure: as §1, §2

[13] = as above; details: 1H NMR titration in D2O at 298 K; ~0 = too small for analysis; remark: listed apart in the source
Procedure: as §1, §2

[14] = as above; details: 1H NMR titration in D2O at 298 K; remark: listed apart in the source
Procedure: as §1, §2

[15] = as above; details: 1H NMR titration in D2O at 298 K; ~0 = too small for analysis; remark: listed apart in the source
Procedure: as §1, §2

[16] = as above; details: 1H NMR titration in D2O at 298 K; ~0 = too small for analysis; remark: listed apart in the source
Procedure: as §1, §2

[17] = as above; details: 1H NMR titration in D2O at 298 K; remark: listed apart in the source
Procedure: as §1, §2

[18] = as above; details: 1H NMR titration in D2O at 298 K; remark: listed apart in the source
Procedure: as §1, §2

[19] = as above; details: 1H NMR titration in D2O at 298 K; remark: listed apart in the source
Procedure: as §1, §2

[20] = as above; details: 1H NMR titration in D2O at 298 K; ~0 = too small for analysis; remark: listed apart in the source
Procedure: as §1, §2

[21] = as above; details: 1H NMR titration in D2O at 298 K; ~0 = too small for analysis; remark: listed apart in the source
Procedure: as §1, §2

[22] = as above
Procedure: as §1, §2

Fluorescence titration = type: binding; details: for Ka: fluorescence titration in phosphate buffer solution (pH 7.1, 0.1 M) at 298 K
Procedure: (§3) Fluorescence titrations were carried out at 298 K on a PerkinElmer™ LS45 spectrometer in PBS (phosphate buffered saline) buffer solution (pH 7.1, 100 mM). The carbohydrate stock solutions were prepared by dissolving the carbohydrates in buffer containing the receptor at the concentration to be used in the titration (thus avoiding dilution of the receptor during the experiment). The solutions were kept overnight at room temperature before the titration experiments, in order to ensure equilibration of anomers. The wavelength to be used for fluorescence excitation was determined by measurement of the UV-visible spectrum of receptor 3 in the presence of carbohydrates. 394 nm was chosen, because at this wavelength the absorption of receptor was almost independent of carbohydrate concentration. In a typical titration, aliquots of carbohydrate-receptor solution were added to receptor solution (2.5 mL) in a quartz cuvette (3 mL, 10 mm pathway). The solution was stirred for 2 minutes and left to stand for another 1 minute before the emission spectrum was recorded. Binding constants were calculated using non-linear curve fitting assuming 1:1 binding stoichiometry, employing both Kaleidagraph™ and a customised Excel™ spreadsheet. Errors were estimated at <5%.

[23] = Isothermal titration calorimetry (ITC); type: binding
Procedure: (§4) Experiments were performed on a VP-ITC™ (Microcal, Inc., Northampton, Mass.) at 298 K. Stock solutions of carbohydrates were made up in pure HPLC grade water and allowed to equilibrate overnight. Receptor solutions were made up in pure water. All the solutions were degassed and thermostated using the ThermoVac™ accessory before titration. The sample cell volume was 1.4226 mL. Each titration experiment included 25-35 successive injections.

[24] = Isothermal titration calorimetry (ITC); type: binding; details: ITC titration in water at 298 K
Procedure: as §4

[25] = 1H NMR titration, summary for non-target monosaccharides; type: binding; details: all non-target monosaccharides aside from methyl α-D-glucoside
Procedure: as §1, §2

[26] = Fluorescence emission properties of the receptor; type: physicochemical
Procedure: as §3, with “The solution was stirred for 2 minutes and left to stand for another 1 minute before the emission spectrum was recorded. Binding constants were calculated using non-linear curve fitting assuming 1:1 binding stoichiometry, employing both Kaleidagraph™ and a customised Excel™ spreadsheet. Errors were estimated at <5%.” left out
It can be seen that on excitation with UV light at 394 nm, 3 emitted in the blue-violet region, peaking at 423 nm, with a quantum yield of 2.4% (20 μm aqueous solution). […] Binding constants obtained by this method were in good agreement with those measured by NMR titrations (see Table 1). Moreover these fluorescence characteristics are promising for practical glucose sensing, especially when compared to biphenyl-based synthetic lectins. […]

[27] = Photobleaching under continuous UV irradiation in a fluorescence spectrometer; type: physicochemical; details: in 5 hours
Procedure: Under continuous UV irradiation in a fluorescence spectrometer, emission decayed by <10% in 5 hours. In a practical glucose monitoring device this would translate to a long lifetime as the receptor compound would be subjected only to short pulses of light every few seconds.

[28] = Solubility and aggregation in water/D2O (NMR dilution studies); type: physicochemical
Procedure: The compound was dissolved in D2O at concentrations up to ˜4 mM giving clean, if slightly broadened, ^1H NMR spectra. Minor signal movements were observed on dilution to ˜1 mM but no further effect was observed below this concentration, implying that the system is monomeric at 1 mM or less.

[29] = 1H NMR titration, 1.1 mM receptor, glucose 0 to 200 mM, 298 K
[30] = 0.125 mM to 2 mM in D2O at 298 K

SMILES: O=C(O)CCOCC(COCCC(=O)O)(COCCC(=O)O)NC(=O)c1cc2cc(c1)C(=O)NCc1c3ccccc3c(c3ccccc13)CNC(=O)c1cc(cc(C(=O)NC(COCCC(=O)O)(COCCC(=O)O)COCCC(=O)O)c1)C(=O)NCc1c3ccccc3c(c3ccccc13)CNC2=O [Compound 3]
Ka [1]: 56 M⁻¹
Ka ([1]; ~0 = too small for analysis): ~0 M⁻¹
association constant Ka from movement of proton E [1, 29]: 58 M⁻¹
association constant Ka from movement of proton F [1, 29]: 54 M⁻¹
receptor occupancy ([1]; 310 K, across the physiological range of 2-10 mM glucose): 6-25%
response when added to receptor ([1]; lactate): Neither produced any response
affinity measured by NMR titration ([1]; physiological temperature (310 K)): 33 M⁻¹
Ka [2]: 96 M⁻¹
Ka [3]: 36 M⁻¹
Ka [4]: 10 M⁻¹
Ka [5]: 9 M⁻¹
Ka [6]: 24 M⁻¹
Ka [7]: 87 M⁻¹
Ka [8]: 6 M⁻¹
Ka [9]: 1 M⁻¹
Ka [10]: 1 M⁻¹
Ka [11]: ~0 M⁻¹
Ka [12]: ~0 M⁻¹
Ka [13]: ~0 M⁻¹
Ka [14]: 1 M⁻¹
Ka [15]: ~0 M⁻¹
Ka [16]: ~0 M⁻¹
Ka [17]: 28 M⁻¹
Ka [18]: 35 M⁻¹
Ka [19]: 16 M⁻¹
Ka [20]: ~0 M⁻¹
Ka [21]: ~0 M⁻¹
Ka ([22]; 1H NMR titration in D2O at 298 K, ~0 = too small for analysis): ~0 M⁻¹
response when added to receptor ([22]; mannitol): Neither produced any response
Ka (Fluorescence titration; binding data at 423 nm): 58 M⁻¹
Ka (Fluorescence titration; with D -lactose): 9 M⁻¹
Ka (Fluorescence titration; with methyl β-D-glucoside 10): 121 M⁻¹
increase of emission intensity on addition of glucose (factor) (Fluorescence titration; receptor 18.8 μM, excitation 394 nm): up to 2.5
Ka ([23]; ITC titration in water at 298 K): 55 M⁻¹
TΔS of binding ([23]; ITC, 298 K, water): -1.4 kcal/mol
ΔH of binding ([23]; ITC, 298 K, water): -3.8 kcal/mol
Ka [24]: 101 M⁻¹
Ka [25]: ≤ 1 m^−1
quantum yield ([26]; 20 μm aqueous solution, excitation 394 nm): 2.4%
emission peak ([26]; excitation with UV light at 394 nm): 423 nm
emission decay (photobleaching) [27]: < 10%
concentration at which system is monomeric ([28]; D2O, NMR dilution): ≤ 1000 µM
concentration dissolved in D2O ([28]; giving clean 1H NMR spectra): ~4000 µM

Ka [1]: too small to measure
Ka [5]: too small to measure
SMILES: O=C([O-])CCOCC(COCCC(=O)[O-])(COCCC(=O)[O-])NC(=O)c1cc2cc(c1)C(=O)NCc1c3ccccc3c(c3ccccc13)CNC(=O)c1cc(cc(C(=O)NC(COCCC(=O)[O-])(COCCC(=O)[O-])COCCC(=O)[O-])c1)C(=O)NCc1ccc(cc1)CNC2=O.[Na+].[Na+].[Na+].[Na+].[Na+].[Na+] [Compound 9]

Ka [1]: 89 M⁻¹
increase in fluorescence emission upon binding with D-glucose (Fluorescence titration; em 423 nm, ex 395 nm, 18.8 μM, phosphate buffer pH 7.1): approximately three-fold
aggregation during NMR dilution studies [28, 30]: no indication of aggregation
solubility in water [28, 30]: good solubility in water
SMILES: O=C([O-])CCC(CCC(=O)[O-])(CCC(=O)[O-])NC(=O)CCC(CCC(=O)NC(CCC(=O)[O-])(CCC(=O)[O-])CCC(=O)[O-])(CCC(=O)NC(CCC(=O)[O-])(CCC(=O)[O-])CCC(=O)[O-])NC(=O)c1cc2cc(c1)C(=O)NCc1c3ccccc3c(c3ccccc13)CNC(=O)c1cc(cc(C(=O)NC(CCC(=O)NC(CCC(=O)[O-])(CCC(=O)[O-])CCC(=O)[O-])(CCC(=O)NC(CCC(=O)[O-])(CCC(=O)[O-])CCC(=O)[O-])CCC(=O)NC(CCC(=O)[O-])(CCC(=O)[O-])CCC(=O)[O-])c1)C(=O)NCc1c3ccccc3c(c3ccccc13)CNC2=O.[Na+].[Na+].[Na+].[Na+].[Na+].[Na+].[Na+].[Na+].[Na+].[Na+].[Na+].[Na+].[Na+].[Na+].[Na+].[Na+].[Na+].[Na+] [Compound 13]
Ka (Fluorescence titration; binding data at 423 nm): 87 M⁻¹
